How the values were obtained:
[1] = target: 1-phosphatidylinositol 3-phosphate 5-kinase (Homo sapiens) (UniProt Q9Y2I7); conditions: Compound concentration 1000.0 nM
[2] = target: Ribosomal protein S6 kinase alpha-2 (Homo sapiens) (UniProt Q15349); conditions: Compound concentration 1000.0 nM
[3] = target: Glycogen synthase kinase-3 alpha (Homo sapiens) (UniProt P49840); conditions: Compound concentration 1000.0 nM
[4] = target: 5-hydroxytryptamine receptor 2A (Homo sapiens) (UniProt P28223); conditions: Compound concentration 10.0 uM
[5] = target: T1, Serine/threonine-protein kinase Sgk1 (Homo sapiens) (UniProt O00141); conditions: Compound concentration 1000.0 nM
T1 sequence (whole entry): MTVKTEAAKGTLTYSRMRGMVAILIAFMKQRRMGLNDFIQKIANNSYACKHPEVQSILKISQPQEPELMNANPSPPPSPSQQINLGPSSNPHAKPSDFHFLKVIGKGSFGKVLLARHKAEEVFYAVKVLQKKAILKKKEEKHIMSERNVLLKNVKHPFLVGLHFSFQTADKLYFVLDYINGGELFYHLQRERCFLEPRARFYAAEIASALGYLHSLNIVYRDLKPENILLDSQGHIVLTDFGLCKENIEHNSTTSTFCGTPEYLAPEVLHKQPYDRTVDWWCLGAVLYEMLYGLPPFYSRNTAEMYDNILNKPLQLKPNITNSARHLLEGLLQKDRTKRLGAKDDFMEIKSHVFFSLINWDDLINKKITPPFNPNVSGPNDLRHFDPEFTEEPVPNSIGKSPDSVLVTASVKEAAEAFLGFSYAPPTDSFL

[6] = target: T2, Inhibitor of nuclear factor kappa-B kinase subunit epsilon (Homo sapiens) (UniProt Q14164); conditions: Compound concentration 1000.0 nM
T2 sequence (whole entry): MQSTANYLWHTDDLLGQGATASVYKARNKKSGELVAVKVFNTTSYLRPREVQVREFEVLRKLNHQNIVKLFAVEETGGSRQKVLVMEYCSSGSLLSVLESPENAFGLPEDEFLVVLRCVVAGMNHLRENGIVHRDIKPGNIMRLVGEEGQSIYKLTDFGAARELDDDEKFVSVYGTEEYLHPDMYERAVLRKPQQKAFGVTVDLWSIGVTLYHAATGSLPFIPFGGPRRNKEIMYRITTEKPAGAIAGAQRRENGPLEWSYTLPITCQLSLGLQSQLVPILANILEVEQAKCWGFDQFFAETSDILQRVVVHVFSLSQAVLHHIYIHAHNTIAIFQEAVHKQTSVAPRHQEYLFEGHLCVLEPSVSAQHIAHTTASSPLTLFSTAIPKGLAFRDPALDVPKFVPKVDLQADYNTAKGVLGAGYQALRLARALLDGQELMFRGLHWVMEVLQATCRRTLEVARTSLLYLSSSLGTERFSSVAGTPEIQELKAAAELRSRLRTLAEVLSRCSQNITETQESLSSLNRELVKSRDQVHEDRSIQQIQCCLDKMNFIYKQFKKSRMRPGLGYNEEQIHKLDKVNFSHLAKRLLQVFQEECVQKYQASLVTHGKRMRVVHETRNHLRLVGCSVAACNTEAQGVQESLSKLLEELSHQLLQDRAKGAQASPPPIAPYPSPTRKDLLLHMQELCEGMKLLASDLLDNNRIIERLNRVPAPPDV

[7] = target: T3, Mitogen-activated protein kinase kinase kinase 2 (Homo sapiens) (UniProt Q9Y2U5); conditions: Compound concentration 1000.0 nM
T3 sequence (whole entry): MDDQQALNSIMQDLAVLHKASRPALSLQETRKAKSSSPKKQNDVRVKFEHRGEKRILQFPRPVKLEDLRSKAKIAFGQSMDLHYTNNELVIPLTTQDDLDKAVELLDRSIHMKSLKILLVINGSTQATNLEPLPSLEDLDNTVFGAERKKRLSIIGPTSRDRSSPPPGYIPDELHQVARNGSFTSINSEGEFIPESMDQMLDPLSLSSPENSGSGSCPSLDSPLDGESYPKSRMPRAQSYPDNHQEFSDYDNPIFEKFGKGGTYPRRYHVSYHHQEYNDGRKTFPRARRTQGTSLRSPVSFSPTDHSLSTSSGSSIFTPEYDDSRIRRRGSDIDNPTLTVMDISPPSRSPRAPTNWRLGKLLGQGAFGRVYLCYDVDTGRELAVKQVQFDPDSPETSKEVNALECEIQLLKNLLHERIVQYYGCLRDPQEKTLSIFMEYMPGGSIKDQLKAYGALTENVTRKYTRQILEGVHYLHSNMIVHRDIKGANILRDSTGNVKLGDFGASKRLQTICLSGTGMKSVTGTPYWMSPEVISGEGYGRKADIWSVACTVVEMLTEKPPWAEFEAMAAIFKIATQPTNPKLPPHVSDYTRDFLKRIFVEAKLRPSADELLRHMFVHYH

[8] = target: Peripheral plasma membrane protein CASK (Homo sapiens) (UniProt O14936); conditions: Compound concentration 1000.0 nM
[9] = target: Calcium/calmodulin-dependent protein kinase type II subunit gamma (Homo sapiens) (UniProt Q13555); conditions: Compound concentration 1000.0 nM
[10] = system: Epidermal growth factor receptor (Homo sapiens), P00533 [G719C]; conditions: Compound concentration 1000.0 nM
[11] = system: Receptor-type tyrosine-protein kinase FLT3 (Homo sapiens), P36888 [D835Y]; conditions: Compound concentration 1000.0 nM

Calcium/calmodulin-dependent protein kinase type II subunit gamma (Homo sapiens), sequence (Q13555 whole entry): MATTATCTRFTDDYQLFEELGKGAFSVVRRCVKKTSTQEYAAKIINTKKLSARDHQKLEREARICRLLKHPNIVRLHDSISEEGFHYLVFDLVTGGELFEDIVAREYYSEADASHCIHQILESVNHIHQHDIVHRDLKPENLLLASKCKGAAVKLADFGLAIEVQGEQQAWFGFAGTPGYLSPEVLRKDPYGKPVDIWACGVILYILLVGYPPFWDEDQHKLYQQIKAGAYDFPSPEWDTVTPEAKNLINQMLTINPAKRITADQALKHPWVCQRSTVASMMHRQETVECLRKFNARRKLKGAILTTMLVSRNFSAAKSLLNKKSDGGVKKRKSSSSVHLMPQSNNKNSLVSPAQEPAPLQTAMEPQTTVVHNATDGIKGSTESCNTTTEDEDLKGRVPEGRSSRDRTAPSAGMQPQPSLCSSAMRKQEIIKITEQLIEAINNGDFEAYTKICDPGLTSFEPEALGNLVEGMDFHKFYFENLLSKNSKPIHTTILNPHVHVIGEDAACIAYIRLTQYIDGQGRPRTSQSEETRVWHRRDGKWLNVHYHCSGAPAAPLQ
5-hydroxytryptamine receptor 2A (Homo sapiens), sequence (P28223 whole entry): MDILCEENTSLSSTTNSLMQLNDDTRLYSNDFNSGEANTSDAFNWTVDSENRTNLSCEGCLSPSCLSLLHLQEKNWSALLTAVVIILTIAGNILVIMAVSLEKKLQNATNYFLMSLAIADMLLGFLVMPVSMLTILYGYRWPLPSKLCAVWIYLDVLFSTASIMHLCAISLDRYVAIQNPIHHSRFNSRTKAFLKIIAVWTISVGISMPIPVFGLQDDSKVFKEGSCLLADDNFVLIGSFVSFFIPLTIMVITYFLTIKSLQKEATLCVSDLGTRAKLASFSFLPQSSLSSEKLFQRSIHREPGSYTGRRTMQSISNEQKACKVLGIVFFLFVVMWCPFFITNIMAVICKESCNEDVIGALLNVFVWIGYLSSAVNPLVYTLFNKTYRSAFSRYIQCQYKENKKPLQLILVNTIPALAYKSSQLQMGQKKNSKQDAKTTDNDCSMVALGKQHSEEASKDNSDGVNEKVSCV
1-phosphatidylinositol 3-phosphate 5-kinase (Homo sapiens), sequence (Q9Y2I7 whole entry): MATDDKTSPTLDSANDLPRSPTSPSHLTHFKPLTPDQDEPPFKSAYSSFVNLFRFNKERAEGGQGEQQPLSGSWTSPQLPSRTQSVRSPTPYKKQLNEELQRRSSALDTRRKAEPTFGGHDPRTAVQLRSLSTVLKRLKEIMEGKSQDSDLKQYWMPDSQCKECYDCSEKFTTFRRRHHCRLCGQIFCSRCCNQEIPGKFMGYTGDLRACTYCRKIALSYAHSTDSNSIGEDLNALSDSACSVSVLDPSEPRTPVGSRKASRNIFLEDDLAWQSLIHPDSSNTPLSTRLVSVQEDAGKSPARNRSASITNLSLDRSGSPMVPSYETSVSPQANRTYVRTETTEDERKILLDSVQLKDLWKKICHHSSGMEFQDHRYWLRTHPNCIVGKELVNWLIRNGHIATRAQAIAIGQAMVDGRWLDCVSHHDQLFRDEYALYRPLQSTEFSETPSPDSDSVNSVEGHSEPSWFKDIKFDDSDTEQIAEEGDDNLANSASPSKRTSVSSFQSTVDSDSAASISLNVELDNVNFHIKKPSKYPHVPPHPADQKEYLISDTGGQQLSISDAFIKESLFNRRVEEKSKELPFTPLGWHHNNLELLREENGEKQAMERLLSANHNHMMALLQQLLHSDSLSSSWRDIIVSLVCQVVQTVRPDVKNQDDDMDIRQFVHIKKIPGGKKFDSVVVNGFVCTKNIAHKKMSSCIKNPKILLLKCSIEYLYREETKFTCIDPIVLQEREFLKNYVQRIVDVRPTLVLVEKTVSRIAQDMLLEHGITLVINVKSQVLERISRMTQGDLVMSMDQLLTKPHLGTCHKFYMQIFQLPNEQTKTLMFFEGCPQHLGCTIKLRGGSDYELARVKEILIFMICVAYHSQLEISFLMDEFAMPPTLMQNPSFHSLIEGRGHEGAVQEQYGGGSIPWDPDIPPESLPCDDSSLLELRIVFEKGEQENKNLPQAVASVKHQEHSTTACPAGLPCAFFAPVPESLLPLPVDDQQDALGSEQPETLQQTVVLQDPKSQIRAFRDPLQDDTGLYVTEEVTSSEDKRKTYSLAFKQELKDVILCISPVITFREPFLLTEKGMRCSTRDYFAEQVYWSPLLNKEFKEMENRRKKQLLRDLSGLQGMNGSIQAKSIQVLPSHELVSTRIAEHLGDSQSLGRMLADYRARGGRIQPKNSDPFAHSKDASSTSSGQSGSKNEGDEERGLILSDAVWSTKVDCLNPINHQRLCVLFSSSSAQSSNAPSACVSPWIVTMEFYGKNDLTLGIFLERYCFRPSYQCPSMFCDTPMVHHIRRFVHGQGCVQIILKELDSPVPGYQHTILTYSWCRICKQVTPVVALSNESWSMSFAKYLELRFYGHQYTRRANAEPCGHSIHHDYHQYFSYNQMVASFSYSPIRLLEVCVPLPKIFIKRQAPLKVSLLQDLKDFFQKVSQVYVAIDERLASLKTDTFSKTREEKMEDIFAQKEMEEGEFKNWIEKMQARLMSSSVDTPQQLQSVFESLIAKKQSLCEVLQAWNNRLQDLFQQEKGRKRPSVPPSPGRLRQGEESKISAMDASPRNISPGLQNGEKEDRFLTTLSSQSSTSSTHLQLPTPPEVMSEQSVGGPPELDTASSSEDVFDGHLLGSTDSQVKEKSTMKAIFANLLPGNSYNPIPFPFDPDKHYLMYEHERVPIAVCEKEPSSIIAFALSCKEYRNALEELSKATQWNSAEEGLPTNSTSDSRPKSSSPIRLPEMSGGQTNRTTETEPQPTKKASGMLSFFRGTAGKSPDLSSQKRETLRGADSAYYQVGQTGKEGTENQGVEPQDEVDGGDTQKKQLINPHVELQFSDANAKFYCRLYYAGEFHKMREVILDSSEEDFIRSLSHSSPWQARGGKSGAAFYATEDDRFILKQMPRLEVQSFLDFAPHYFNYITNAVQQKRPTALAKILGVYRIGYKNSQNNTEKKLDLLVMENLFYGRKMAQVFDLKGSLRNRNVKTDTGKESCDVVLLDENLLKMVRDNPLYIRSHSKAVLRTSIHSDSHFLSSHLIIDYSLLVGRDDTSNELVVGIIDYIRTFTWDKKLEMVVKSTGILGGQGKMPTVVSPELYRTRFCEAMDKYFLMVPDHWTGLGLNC
Peripheral plasma membrane protein CASK (Homo sapiens), sequence (O14936 whole entry): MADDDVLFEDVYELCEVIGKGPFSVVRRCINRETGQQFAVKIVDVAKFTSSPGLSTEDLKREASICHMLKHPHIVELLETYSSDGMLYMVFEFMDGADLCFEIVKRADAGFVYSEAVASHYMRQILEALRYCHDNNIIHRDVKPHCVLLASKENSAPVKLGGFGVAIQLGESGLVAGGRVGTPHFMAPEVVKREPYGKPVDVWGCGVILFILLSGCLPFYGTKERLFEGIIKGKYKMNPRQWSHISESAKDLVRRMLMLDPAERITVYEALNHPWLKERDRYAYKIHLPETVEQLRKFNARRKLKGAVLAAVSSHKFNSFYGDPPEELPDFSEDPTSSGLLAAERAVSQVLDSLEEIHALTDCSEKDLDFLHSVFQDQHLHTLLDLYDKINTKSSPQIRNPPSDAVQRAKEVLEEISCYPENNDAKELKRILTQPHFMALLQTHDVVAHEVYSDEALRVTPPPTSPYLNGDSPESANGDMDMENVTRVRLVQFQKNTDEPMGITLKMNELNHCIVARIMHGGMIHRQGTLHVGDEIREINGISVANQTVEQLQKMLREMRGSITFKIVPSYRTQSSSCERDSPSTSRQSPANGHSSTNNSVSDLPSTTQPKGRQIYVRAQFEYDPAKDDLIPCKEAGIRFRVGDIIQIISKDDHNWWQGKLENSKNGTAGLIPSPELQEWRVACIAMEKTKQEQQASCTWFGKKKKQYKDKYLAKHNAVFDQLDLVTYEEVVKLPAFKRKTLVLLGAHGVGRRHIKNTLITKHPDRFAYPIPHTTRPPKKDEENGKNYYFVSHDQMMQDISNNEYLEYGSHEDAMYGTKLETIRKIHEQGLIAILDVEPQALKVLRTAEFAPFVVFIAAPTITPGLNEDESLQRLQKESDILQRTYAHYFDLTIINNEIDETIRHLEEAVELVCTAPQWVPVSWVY
Glycogen synthase kinase-3 alpha (Homo sapiens), sequence (P49840 2-483 limits assumed): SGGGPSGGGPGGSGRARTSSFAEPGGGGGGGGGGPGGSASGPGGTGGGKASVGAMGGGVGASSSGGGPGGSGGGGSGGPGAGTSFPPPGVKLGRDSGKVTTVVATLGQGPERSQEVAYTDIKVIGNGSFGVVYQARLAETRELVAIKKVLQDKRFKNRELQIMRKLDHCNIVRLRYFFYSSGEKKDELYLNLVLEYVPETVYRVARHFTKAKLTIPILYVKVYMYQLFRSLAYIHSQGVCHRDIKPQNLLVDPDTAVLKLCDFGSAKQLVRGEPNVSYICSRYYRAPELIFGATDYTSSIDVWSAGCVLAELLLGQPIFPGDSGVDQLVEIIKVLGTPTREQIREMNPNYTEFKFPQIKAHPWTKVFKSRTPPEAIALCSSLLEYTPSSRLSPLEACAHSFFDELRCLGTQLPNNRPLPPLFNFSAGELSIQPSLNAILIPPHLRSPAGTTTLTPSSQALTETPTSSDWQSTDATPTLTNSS

Cc1nc(C2CCN(C(=O)c3ccc(OC(F)(F)F)cc3N)CC2)c2ncc(N3CCN(C)CC3)cc2n1 [BAY-693]
inactive: residual activity [1] 100% | residual activity [2] 100% | residual activity [3] 85% | inhibition [4] 4.68% | residual activity [5] 100% | residual activity [6] 97% | residual activity [7] 100% | residual activity [8] 87% | residual activity [9] 100% | residual activity [10] 100% | residual activity [11] 97%

CN1CCN(c2cnc3c(C4CCN(C(=O)c5ccc(OC(F)(F)F)cc5N)CC4)ncnc3c2)CC1 [BAY-885]
inactive: residual activity [1] 98% | residual activity [2] 100% | residual activity [3] 100% | inhibition [4] 4.33% | residual activity [5] 100% | residual activity [6] 98% | residual activity [7] 100% | residual activity [8] 89% | residual activity [9] 100% | residual activity [10] 94% | residual activity [11] 100%

Source: ChEMBL document CHEMBL4507268 (2021)
